Source: patent US20240301359A1, “SYSTEM COMPRISING CISPLATIN-RESISTANT XENOGRAFT FOR NASOPHARYNGEAL CARCINOMA AND METHODS THEREOF” (THE UNIVERSITY OF HONG KONG, priority 2023, published 2024)

Key:
Type in all cases: in vivo
[1] = test system: xeno76-CR cisplatin-resistant NPC PDX; assay: cisplatin treatment of xeno76-CR PDX-bearing nude mice; conditions: 3 mg/kg cisplatin weekly i.p., at harvest, ns P>0.05
Protocol: (§1) Parental xeno76 and xeno76-CR-bearing nude mice were randomized into control and treatment groups (n=4). […] The tumor volume was measured and recorded during the whole treatment period, and the tumor growth curves of xeno76 and xeno76-CR are shown in Error! […] Black arrows represent the treatment day. The xeno76 and xeno76-CR nude mice were randomized respectively on day 0 and received the first treatment. Data presented are mean (n=4) with error bars showing SEM. Statistical significance was done using paired two-tailed t-test, *** P<0.001, ns P>0.05. Furthermore, the tumors of xeno76 and xeno76-CR were also weighed and harvested for further investigation (FIG. 2C). Statistical significance was done using the unpaired two-tailed t-test, ** P<0.01, ns P>0.05.

xeno76 NPC PDX = assay: cisplatin treatment of xeno76 PDX-bearing nude mice
Protocol: as §1

[2] = maximum tolerated dose of cisplatin in nude mice; conditions: weekly i.p.
Description: A protocol for developing cisplatin-resistant PDX model from the NPC PDX models is described. NPC PDX tissues were implanted in nude mice subcutaneously (FIG. 1).

xeno113 metastatic NPC = assay: ixazomib sensitivity of metastatic NPC PDX xeno113; conditions: relatively low dosage
[3] = test system: xeno76-CR cisplatin-resistant NPC PDX; assay: ixazomib treatment of xeno76-CR-bearing nude mice
Protocol: (§2) Xeno76-CR-bearing nude mice were randomized into the control and 4 mg/kg ixazomib treatment group (n=4). Referring to FIG. 5A, black arrows represent the treatment day. Data presented are mean (n=4) with error bars showing SEM. Statistical significance was done using one-way ANOVA, **** P<0.0001.
(§3) The images of size and appearance of the xeno76-CR tumor-bearing mice between control and treatment groups on day 21 are shown in FIG. 5B. […] In FIG. 5C and FIG. 5D, data presented are means (n=4) with error bars showing the SEM. Statistical significance was done using the unpaired two-tailed t-test. Black arrows represent the treatment day.

[4] = body weight and side effects in ixazomib-treated nude mice
Protocol: as §2, §3

xeno76 primary NPC = assay: ixazomib sensitivity of primary NPC PDX xeno76; conditions: naïve to radio- and chemotherapy, relatively low dosage

N.N.[Cl][Pt][Cl] [cisplatin]
tumor weight vs control [1]: no significant differences | tumor growth (tumor volume) vs control (xeno76 NPC PDX; 3 mg/kg cisplatin in saline weekly i.p., n=4, *** P<0.001): significantly inhibited | tumor weight vs control (xeno76 NPC PDX; 3 mg/kg cisplatin weekly i.p., at harvest): significantly lighter than the xeno76 control group | maximum tolerated dose [2]: 5 mg/kg

CC(C)C[C@H](NC(=O)CNC(=O)c1cc(Cl)ccc1Cl)B(O)O [ixazomib]
sensitivity to ixazomib (xeno113 metastatic NPC): sensitive to ixazomib | sensitivity to ixazomib ([3]; cisplatin-resistant NPC (xeno76-CR), relatively low dosage, summary statement): sensitive to ixazomib | tumor weight at the endpoint of the experiment ([3]; xeno76-CR, 4 mg/kg ixazomib, n=4 mean, control group 0.52 g, * P<0.05): 0.21 g | tumor growth (tumor volume) vs control ([3]; xeno76-CR, 4 mg/kg ixazomib, three-week treatment, n=4, **** P<0.0001): effectively inhibited xeno76-CR growth | observable side effects or weight loss ([4]; 4 mg/kg ixazomib, xeno76-CR bearing nude mice): did not induce any observable side effects or weight loss | side effects and body weight loss ([4]; all the tested animals, summary statement): no side effects and body weight loss | sensitivity to ixazomib (xeno76 primary NPC): sensitive to ixazomib
